Legend:
AAT-induced hearing loss [1] = test: Chinchilla AAT model, NAC intraperitoneal, ABR threshold shift; format: in vivo; settings: FIG. 3; for threshold shift at 21 days following AAT exposure: p<0.05
Description: For the experiments and examples described herein, the following methods were generally employed except for those described with respect to FIG. 5. Female adult chinchilla laniger (Mouton Chinchilla Ranch, Rochester, Minn.) weighing 500-850 grams were placed, two at a time, in two small wire restraint cages on a wooden plate where the AAT was induced by a 105 dB SPL octave-band noise centered at 4 kHz for 6 hours in a sound isolation booth [Industrial Acoustics Company (IAC), New York, N.Y.]. The noise was digitally generated by a Tucker Davis Technologies (TDT, Alachua, Fla.) device and passed through a real time attenuator (TDT, RP2), filtered, amplified with a preamplifier (QSC audio power, Costa Mesa, Calif.), and transduced with a high frequency acoustic driver and an acoustic speaker (JBL 2350, Northridge, Calif.) suspended from the ceiling of the sound booth which is placed directly above the wire cages. Before noise exposure, the sound spectrum output of the system was calibrated with a sound level meter centered at an octave bandwidth of 4 kHz. A condenser microphone (B&K 2804, Norcross, Ga.) coupled to the preamplifier was placed between the two wire cages at the level of the animals' heads to monitor the noise level. During noise exposure, the noise level was continually and visually monitored using the PULSE software system [B&K Sound & Vibration Measurement (version 10.0), Norcross, Ga.] including FFT Analysis Type 7770 and CPB Analysis 7771. […]
Hearing was assessed as auditory brainstem response (ABR) which was measured at between 1 and 3 days prior to AAT and at one or more of the following time points post AAT: 1 hr, 8 hr, 24 hr 7 day and 21 days. […] ABR thresholds were recorded from subcutaneous needle electrodes placed under the skin of the head. […]

AAT-induced hearing loss [2] = test: Chinchilla AAT model, oral treatment, ABR threshold shift; format: in vivo, chinchilla laniger
Description: The treatments were administered a total of five times including one dose 4 hours post-AAT, and two doses daily on days 1 and 2 post AAT.
Hearing was assessed as auditory brainstem response (ABR) which was measured at between 1 and 3 days prior to AAT and at one or more of the following time points post AAT: 1 hr, 8 hr, 24 hr 7 day and 21 days. The 21 day test point was considered the permanent threshold shift (PTS). ABR recordings were performed under light ketamine (20 mg/kg) and xylazine (1 mg/kg) anesthesia. Small supplemental doses (⅓ of initial dose) were given if needed. ABR thresholds were recorded from subcutaneous needle electrodes placed under the skin of the head. […] Auditory stimuli was generated using a computer-aided system (Intelligent Hearing Systems, Miami, Fla.) coupled to high frequency transducers. Acoustic stimuli were tone pips (5 ms duration and 1 ms Blackman rise and fall) at frequencies of 0.5, 1, 2, 4, 6, 8, and 16 kHz. All acoustic stimuli were transduced through the computer-controlled attenuator to a 3A insert earphone [Etyniotic Research (ER)-3A, Etymotic Research Inc., Elk Grove Village, Ill.] placed about 5 mm from the tympanic membrane. The insert earphone was calibrated with a coupler mounted to the sound level meter approximating its placement. The electrical responses obtained from the electrodes were amplified (×100,000), filtered (100-3,000 Hz), and digitized through an A/D converter on a signal processing board. They were averaged at a sample rate of 1024 for each level.
Hearing thresholds were tested in 10 dB descending steps until near the threshold, and then 5 dB ascending steps were taken to determine the threshold. Threshold was defined as the midpoint between the lowest level of a clear response and the next level where no response was observed. The threshold shift refers to the difference in threshold prior to and following AAT. The investigators performing the ABR measurements were blinded as to the identity of the animal groups.
Statistically significant differences in threshold shifts were tested via ANOVA (SPSS 14.0 for Windows).

| Compound | threshold shift at 21 days following AAT exposure (AAT-induced hearing loss [1]; 100 mg/kg NAC i.p.) | threshold shift at 21 days following AAT exposure (AAT-induced hearing loss [1]; 200 mg/kg NAC i.p.) | threshold shift soon after treatment (AAT-induced hearing loss [1]; NAC i.p. 4 hours post AAT) | average threshold shift at each individual frequency (0.5, 1, 2, 4, 6 and 8 kHz) (AAT-induced hearing loss [2]; 300 mg/kg oral, compared to control, FIG. 2) | average threshold shift across all frequencies tested (AAT-induced hearing loss [2]; 21 days post AAT, 300 mg/kg oral, five doses from 4 hours post-AAT, compared to control animals, FIG. 1) | average threshold shift for each individual frequency tested (AAT-induced hearing loss [2]; 21 days post AAT, oral, 300 mg/kg HPN-07 alone or + 300 mg/kg NAC, vs control (10% sucrose), FIG. 4A) | combined average threshold shift from 2 kHz to 8 kHz (AAT-induced hearing loss [2]; 21 days post AAT, oral, vs control, FIG. 4B) | outer hair cell loss (AAT-induced hearing loss [2]; expected in view of ABR data, compared to the control group) | protection from hearing loss due to AAT (AAT-induced hearing loss [2]; oral administration to chinchillas exposed to AAT, summary statement) |
| --- | --- | --- | --- | --- | --- | --- | --- | --- | --- |
| CC(=O)N[C@@H](CS)C(=O)O [NAC, N-acetylcysteine] | significant decrease in threshold shift | significant decrease in threshold shift | mild effect on threshold shift |  |  |  |  |  |  |
| CC(C)(C)[N+]([O-])=Cc1ccc(S(=O)(=O)O)cc1S(=O)(=O)O [HPN-07, 2,4-disulfonyl α-phenyl tertiary butyl nitrone] |  |  |  | most pronounced effect of HPN-07 occurred at 0.5, 1, 6 and 8 kHz, while the effect was less prominent at 2 and 4 kHz | significantly decreased average threshold shift | significant reduction in threshold shift at 0.5, 1, 4 and 6 kHz | overall significant reduction in threshold shift | statistically significant reduction in outer hair cell loss | significantly protected them from hearing loss |
